Test results published in PMC7660225, “New Chemical Probe Targeting Bacterial NAD Kinase” (Molecules, 2020).

Assays:
recombinant LmNADK1 = molecular target: T1, recombinant LmNADK1 (Listeria monocytogenes serovar 1/2a, UniProt Q8Y8D7); assay: LmNADK1 inhibition, coupling assay (Ki measurements); format: biochemical; details: for Ki: competitive inhibition fit, 30 °C, pH 7.0, inhibitor 0, 10, 25 or 50 µM, 0-2 mM NAD, 0.1 µM LmNADK1; for inhibitory potency compared to inhibitor 1 (NKI1): result in words
T1 construct: made in house
T1 sequence (Q8Y8D7 1-264): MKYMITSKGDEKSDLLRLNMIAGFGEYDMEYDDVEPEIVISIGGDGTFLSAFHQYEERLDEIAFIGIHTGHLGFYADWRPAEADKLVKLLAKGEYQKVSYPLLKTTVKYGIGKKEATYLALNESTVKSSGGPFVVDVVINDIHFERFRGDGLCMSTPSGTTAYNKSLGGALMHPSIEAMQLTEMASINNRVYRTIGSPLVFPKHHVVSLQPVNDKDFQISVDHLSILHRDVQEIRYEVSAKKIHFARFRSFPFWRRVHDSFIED
Description: Another important parameter to select the chemical probe is that it retains its binding properties. The potency of ligands 2–5 as inhibitors of recombinant LmNADK1 in vitro were determined using the coupling assay described previously.
Activity was measured at 30 °C in 50 mM Bis-Tris pH 7.0, 2 mM sodium citrate, 1 mM MgCl2. Reaction mixtures contained 0–2 mM NAD, 4 mM MgATP, 5 mM Glucose 6-phosphate, 1 U/mL Glucose 6-phosphate dehydrogenase and 0.1 µM LmNADK1. Steady state rate constants (kss) were calculated by fitting the initial (first 500–1000 s) linear part of the NADP production time courses per NADK. Inhibitors were tested at 4 concentrations: 0, 10, 25 or 50 µM and Ki values were determined using the competitive inhibition equation, kss = kcat × NAD/(KM × (1 + [inhibitor]/Ki) + NAD), with GraFit software (v 7.0.3).
Figure 5 Determination of inhibition constants of compounds 1–5. Inhibitor concentrations were 0 (circles), 10 (triangles), 25 (squares) and 50 (stars) µM. Secondary plots (kss as a function of initial NAD concentration) were fitted assuming a competitive inhibition using GraFit software (v 7.0.3) and are presented here as double reciprocal plots. […] TEXT PRINTED IN THE PICTURE: NKI1: Ki (μM): 17.2 | 2: Ki (μM): 347 | 3: Ki (μM): 52.2 | 4: Ki (μM): 23.8 | 5: Ki (μM): 5.6

crystallized LmNADK1 = molecular target: T2, crystallized LmNADK1 (Listeria monocytogenes serovar 1/2a, UniProt Q8Y8D7); assay: X-ray crystallography of soaked LmNADK1 crystals; format: binding; details: soaking procedure; structures refined to 2.2-2.4 Å
T2 construct: made in house
T2 sequence (Q8Y8D7 1-264): T1 sequence (Q8Y8D7 1-264)
Description: A prerequisite to use a chemical probe is that it retains its binding affinity for its target. The binding properties of the four synthesized derivatives 2–5 were analyzed by X-ray crystallography. We checked the binding properties of these new di-adenosine derivatives by determining their complex with crystallized LmNADK1. The soaking procedure described previously for inhibitor 1 [18] was used to obtain crystals of the target in complex with compounds 2-5. The X-ray structures were solved by molecular replacement using PDB6RGC [18] as a starting template and refined to 2.2–2.4 Å resolution.

S. aureus = system: S. aureus; parameters: method as in PMID 32017533; details: including antibiotic-resistant strains; cited from earlier work

Row | SMILES | Ki (recombinant LmNADK1) | inhibitory potency compared to inhibitor 1 (NKI1) (recombinant LmNADK1) | complex formation / binding mode with crystallized LmNADK1 (crystallized LmNADK1) | activity in mice infected with S. aureus (S. aureus)
1 | NCCCCNc1ncnc2c1ncn2C1OC(COCC#Cc2nc3c(N)ncnc3n2C2OC(CO)C(O)C2O)C(O)C1O (centres unmarked) [Compound 3, 8-[3-(N^6-4-Aminobutyl-5’-O-adenosinyl)propargyl]adenosine] | 52.2 µM | sharp decrease in inhibitory potency | failed to yield complex | –
2 | NCCNc1ncnc2c1ncn2C1OC(COCC#Cc2nc3c(N)ncnc3n2C2OC(CO)C(O)C2O)C(O)C1O (centres unmarked) [Compound 2, 8-[3-(N^6-2-Aminoethyl-5’-O-adenosinyl)propargyl]adenosine] | 347 µM | sharp decrease in inhibitory potency | led to a complex with the target | –
3 | NCCCC(=O)NCC1OC(n2c(C#CCOCC3OC(n4cnc5c(N)ncnc54)C(O)C3O)nc3c(N)ncnc32)C(O)C1O (centres unmarked) [Compound 4, 5’-O-[3-(5’-(4-Aminobutylamido)-5’-deoxy-adenosin-8-yl)prop-2-yn-1-yl]-adenosine] | 23.8 µM | slightly reduced inhibitory potency | very similar to that of NKI1 | –

Now those with a lower Ki (recombinant LmNADK1), led by results:

Row | Ki (recombinant LmNADK1) | inhibitory potency compared to inhibitor 1 (NKI1) (recombinant LmNADK1) | complex formation / binding mode with crystallized LmNADK1 (crystallized LmNADK1) | SMILES | activity in mice infected with S. aureus (S. aureus)
4 | 5.6 µM | slightly increased | very similar to that of NKI1 | NCCCN(CC#Cc1nc2c(N)ncnc2n1C1OC(CO)C(O)C1O)CC1OC(n2cnc3c(N)ncnc32)C(O)C1O (centres unmarked) [Compound 5, 5’-[N-3-Aminopropyl-N-(3-(adenosin-8-yl)propargyl)amino]-5’-deoxyadenosine] | –
5 | 17.2 µM | – | – | Nc1ncnc2c1ncn2C1OC(COCC#Cc2nc3c(N)ncnc3n2C2OC(CO)C(O)C2O)C(O)C1O (centres unmarked) [NKI1] | active in mice infected with S. aureus
